Results on 1 compound are retold here after patent publication US11453689B2, “3-pyrrolidine-indole derivatives as serotonergic psychedelic agents for the treatment of CNS disorders” (Mindset Pharma Inc., priority 2020, dated 2022).

The subject of the test is head-twitch response (HTR) in male C57BL6 mice. Nature of the test: Mouse head-twitch response (HTR). The format is in vivo. The settings on record: M100907 0.5 mg/kg IP before I-2 10 mg/kg SC. As for the experimental part: Male, C57BL/6J mice (body weight range 20-30 g) were dosed with the appropriate dose of test article, and following a 1-minute pre-treatment time, placed in individual observation chambers. Animals were visually assessed for the incidence head twitches continuously over a 1 hr period. Head twitches were defined as a rapid jerk of the head which was not elicited by an external tactile stimulus (Come and Pickering, Psychopharmacologia, 1967, 11(1): 65-78). Each head twitch was individually counted by a trained observer, and the data expressed as the mean±SEM of 6-10 mice per group. Mice were used in a single experiment only.
The effect of various doses of exemplary compound of Formula I, I-2, on head-twitch response (HTR) in male C57BL6 mice were measured. The mice were treated with compound I-2 (0.03-10 mg/kg, SC) by SC route (N=6 mice/dose), and the total number of head twitches were recorded over a 1h period. Data is expressed as mean±SEM. The induction of head twitches elicited by 5-HT2A receptor agonists is believed to represent a behavioural proxy of their psychedelic effects.
To evaluate the involvement of 5-HT2A receptor on the HTR induced by exemplary compounds of Formula I, mice were pretreated with the selective 5-HT2AR antagonist M100907 (also known as volinanserin) prior to the administration of exemplary compounds of Formula I, for example, 1-2 (10 mg/kg SC).

As to `[2H]C([2H])([2H])N1CCC[C@@H]1Cc1c[nH]c2cccc(O)c12` [Compound I-2, (R)-3-((1-(methyl-d3)pyrrolidin-2-yl)methyl)-1H-indol-4-ol], the “effect of I-2 on HTR after pretreatment with 5-HT2A antagonist M100907” value is recorded as “completely blocked”.
